# Test results taken from PubChem BioAssay (NCI).
#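 Step 1: Grow cells in 96-well plates. Step 2: Expose to compound for 48 hours at 5 concentrations. Step 3: Interpolate endpoints linearly; if unreached, use highest concentration. Here, GI50 denotes the concentration required for 50% inhibition of growth. TGI: total growth inhibition.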
# What was measured:
# Assay in all cases: NCI tumour cell line growth inhibition, 48 h
# [1] = tested on: T-47D breast
# [2] = tested on: K-562 leukemia
# [3] = tested on: PC-3 prostate
# [4] = tested on: OVCAR-5 ovarian
# [5] = tested on: NCI-H23 lung
# [6] = tested on: M14 melanoma
# [7] = tested on: SF-268 CNS
# [8] = tested on: OVCAR-3 ovarian
# [9] = tested on: LOX IMVI melanoma
# [10] = tested on: OVCAR-8 ovarian
# [11] = tested on: TK-10 renal
# [12] = tested on: HCT-15 colon
# [13] = tested on: NCI/ADR-RES ovarian
# [14] = tested on: OVCAR-4 ovarian
# [15] = tested on: MDA-MB-435
# [16] = tested on: A498 renal
# [17] = tested on: SF-295 CNS
# [18] = tested on: RPMI-8226 leukemia
# [19] = tested on: MCF7 breast
# [20] = tested on: NCI-H226 lung
# [21] = tested on: HCC-2998 colon
# [22] = tested on: HCT-116 colon
# [23] = tested on: IGROV1 ovarian
# [24] = tested on: SF-539 CNS
# [25] = tested on: COLO 205 colon
# [26] = tested on: HOP-92 NSCLC
# [27] = tested on: BT-549 breast
# [28] = tested on: UACC-257 melanoma
# [29] = tested on: HS 578T breast
# [30] = tested on: SNB-75 CNS
# [31] = tested on: UO-31 renal
# [32] = tested on: SK-MEL-2 melanoma
# [33] = tested on: SK-MEL-5 melanoma
# [34] = tested on: MALME-3M melanoma
# [35] = tested on: EKVX NSCLC
# [36] = tested on: SNB-19 CNS
# [37] = tested on: KM12 colon
# [38] = tested on: A549 NSCLC
# [39] = tested on: HT29 colon
# [40] = tested on: MOLT-4 leukemia
# [41] = tested on: NCI-H522 lung
# [42] = tested on: HOP-62 NSCLC
# [43] = tested on: CCRF-CEM leukemia
# [44] = tested on: RXF 393 renal
# [45] = tested on: MDA-MB-231 breast
# [46] = tested on: SK-MEL-28 melanoma
# [47] = tested on: HL-60(TB) leukemia
# [48] = tested on: SR leukemia
# [49] = tested on: SW-620 colon
# [50] = tested on: 786-0 renal
# [51] = tested on: UACC-62 melanoma
# [52] = tested on: ACHN renal
# [53] = tested on: NCI-H460 lung
# [54] = tested on: SK-OV-3 ovarian
# [55] = tested on: DU-145 prostate
# [56] = tested on: U251 CNS
# [57] = tested on: SN12C renal
# [58] = tested on: CAKI-1 renal
compound,measurement,setting,value
CN(c1ccc(F)cc1)S(=O)(=O)c1ccc(-c2cnc(C3CC3)o2)cc1,GI50,[1],75.9 nM
same,TGI,[1],71300 nM
same,GI50,[2],39.5 nM
same,TGI,[2],> 43800 nM
same,GI50,[3],136 nM
same,TGI,[3],> 67800 nM
same,GI50,[4],495 nM
same,TGI,[4],> 100000 nM
same,GI50,[5],358 nM
same,TGI,[5],> 100000 nM
same,GI50,[6],52 nM
same,TGI,[6],19800 nM
same,GI50,[7],1120 nM
same,TGI,[7],> 100000 nM
same,GI50,[8],41.5 nM
same,TGI,[8],15800 nM
same,GI50,[9],69 nM
same,TGI,[9],14100 nM
same,GI50,[10],553 nM
same,TGI,[10],> 100000 nM
same,GI50,[11],26400 nM
same,TGI,[11],> 100000 nM
same,GI50,[12],49.9 nM
same,TGI,[12],> 50000 nM
same,GI50,[13],57.4 nM
same,TGI,[13],21400 nM
same,GI50,[14],772 nM
same,TGI,[14],> 100000 nM
same,GI50,[15],28.4 nM
same,TGI,[15],94.8 nM
same,GI50,[16],43 nM
same,TGI,[16],493 nM
same,GI50,[17],52 nM
same,TGI,[17],25100 nM
same,GI50,[18],60.6 nM
same,TGI,[18],2510 nM
same,GI50,[19],39.6 nM
same,TGI,[19],50900 nM
same,GI50,[20],239 nM
same,TGI,[20],30800 nM
same,GI50,[21],375 nM
same,TGI,[21],> 50100 nM
same,GI50,[22],41.3 nM
same,GI50,[23],66 nM
same,TGI,[23],> 100000 nM
same,GI50,[24],71.8 nM
same,TGI,[24],1870 nM
same,GI50,[25],98.8 nM
same,TGI,[25],2400 nM
same,GI50,[26],1210 nM
same,TGI,[26],11300 nM
same,GI50,[27],410 nM
same,TGI,[27],14100 nM
same,GI50,[28],11100 nM
same,TGI,[28],52600 nM
same,GI50,[29],176 nM
same,TGI,[29],> 100000 nM
same,GI50,[30],12.4 nM
same,TGI,[30],25800 nM
same,GI50,[31],766 nM
same,TGI,[31],> 94100 nM
same,GI50,[32],3740 nM
same,TGI,[32],40900 nM
same,GI50,[33],84.2 nM
same,TGI,[33],5920 nM
same,GI50,[34],11600 nM
same,TGI,[34],47600 nM
same,GI50,[35],289 nM
same,TGI,[35],> 100000 nM
same,GI50,[36],102 nM
same,TGI,[36],> 100000 nM
same,GI50,[37],54.5 nM
same,TGI,[37],32200 nM
same,GI50,[38],180 nM
same,TGI,[38],> 100000 nM
same,GI50,[39],44.3 nM
same,TGI,[39],14600 nM
same,GI50,[40],80.6 nM
same,TGI,[40],> 37500 nM
same,GI50,[41],78.9 nM
same,TGI,[41],1700 nM
same,GI50,[42],145 nM
same,TGI,[42],> 100000 nM
same,GI50,[43],51.8 nM
same,TGI,[43],> 100000 nM
same,GI50,[44],69.8 nM
same,TGI,[44],366 nM
same,GI50,[45],404 nM
same,TGI,[45],> 39000 nM
same,GI50,[46],2600 nM
same,TGI,[46],> 100000 nM
same,GI50,[47],28.8 nM
same,TGI,[47],306 nM
same,GI50,[48],31.5 nM
same,GI50,[49],66.4 nM
same,TGI,[49],> 100000 nM
same,GI50,[50],108 nM
same,TGI,[50],> 41700 nM
same,GI50,[51],48.1 nM
same,TGI,[51],19500 nM
same,GI50,[52],274 nM
same,TGI,[52],> 73100 nM
same,GI50,[53],46.9 nM
same,TGI,[53],13300 nM
same,GI50,[54],2520 nM
same,TGI,[54],> 94600 nM
same,GI50,[55],279 nM
same,TGI,[55],> 76700 nM
same,GI50,[56],69.4 nM
same,TGI,[56],> 39100 nM
same,GI50,[57],887 nM
same,TGI,[57],39100 nM
same,GI50,[58],73.3 nM
same,TGI,[58],> 100000 nM
